# Measured values as given in patent publication US20050101595A1, “N-containing cycloalkyl-substituted amino-thiazole derivatives and pharmaceutical compositions for inhibiting cell proliferation and methods for their use” (PFIZER INC., priority 2003, published 2005).
# Molecular target: CDK2/Cyclin A (Homo sapiens, UniProt P24941)
# Test: Inhibition of CDK2/Cyclin A Retinoblastoma Kinase Activity
# Format: biochemical
# Conditions: read-out: % inhibition of CDK2 (@ 0.05 μM), compound at 0.05 μM
# Method: Cyclin-dependent kinase activity was measured by quantifying the enzyme-catalyzed, time-dependent incorporation of radioactive phosphate from [^32P]ATP or [^33P]ATP into a protein substrate. Unless noted otherwise, assays were performed in 96-well plates in a total volume of 50 μL, in the presence of 10 mM HEPES (N-[2-hydroxyethyl]piperazine-N′-[2-ethanesulfonic acid]) (pH 7.4), 10 mM MgCl2, 25 μM adenosine triphosphate (ATP), 1 mg/mL ovalbumin, 5 μg/mL leupeptin, 1 mM dithiothreitol, 10 mM β-glycerophosphate, 0.1 mM sodium vanadate, 1 mM sodium fluoride, 2.5 mM ethylene glycol-bis(β-aminoethyl ether)-N,N,N′N′-tetraacetic acid (EGTA), 2% (v/v) dimethylsulfoxide, and 0.03-0.4 μCi [^32/33P]ATP per reaction. Reactions were initiated with enzyme, incubated at 30° C., and terminated after 20 minutes by the addition of ethylenediaminetetraacetic acid (EDTA) to 250 mM. The phosphorylated substrate was then captured on a nitrocellulose or phosphocellulose membrane using a 96-well filtration manifold, and unincorporated radioactivity was removed by repeated washing with 0.85% phosphoric acid. Radioactivity was quantified by exposing the dried membranes to a phosphorimager.
# Inhibition was measured relative to control wells that contained all reaction components including 2% (v/v) DMSO but no compound, after subtraction of background radioactivity measured in the absence of enzyme. Apparent Ki values of discrete compounds were measured by assaying enzyme activity in the presence of different inhibitor compound concentrations and subtracting the background radioactivity measured in the absence of enzyme. The kinetic parameters (kcat, Km for ATP) were measured for each enzyme under the usual assay conditions by determining the dependence of initial rates on ATP concentration. Inhibition data were fit to an equation for competitive inhibition using Kaleidagraph (Synergy Software), or were fit to an equation for competitive tight-binding inhibition using the software KineTic (BioKin, Ltd.).
# Inhibition of CDK2/Cyclin A Retinoblastoma Kinase Activity:
# CDK2 was purified using published methodology (Rosenblatt et al., “Purification and Crystallization of Human Cyclin-dependent Kinase 2,” J. Mol. Biol., vol. 230, 1993, pp. 1317-1319) from insect cells that had been infected with a baculovirus expression vector. […] A complex of CDK2 and proteolyzed cyclin A was prepared and purified by gel filtration. The substrate for this assay was the same Rb substrate fragment used for the CDK4 assays, and the methodology of the CDK2/delta cyclin A and the CDK4/delta cyclin D3 assays was essentially the same, except that CDK2 was present at 10 nM or 19 nM. The duration of the assay was 60 or 75 minutes, during which the time-dependence of product formation was linear and initial rate conditions were met. And, the percent inhibitions of the compounds of Example O through Example R were calculated as described above and shown in Table 2.
row,SMILES,inhibition at 0.05 µM [%]
1,Nc1nc(NC2CCN(S(=O)(=O)CCCNCc3ccccn3)CC2)sc1C(=O)c1c(F)cccc1F [Example V7],82
2,CN1CCCN(CCCS(=O)(=O)N2CCC(Nc3nc(N)c(C(=O)c4c(F)cccc4F)s3)CC2)CC1 [Example V30],78
3,Nc1nc(NC2CCN(S(=O)(=O)CCCNC3CCOCC3)CC2)sc1C(=O)c1c(F)cccc1F [Example V153],84
4,Nc1nc(NC2CCN(S(=O)(=O)CCCNCC3COCCO3)CC2)sc1C(=O)c1c(F)cccc1F (stereo not shown) [Example V163],83
5,CC(=O)NCCNCCCS(=O)(=O)N1CCC(Nc2nc(N)c(C(=O)c3c(F)cccc3F)s2)CC1 [Example V19],59
6,CCc1ccc(C)cc1NCCCS(=O)(=O)N1CCC(Nc2nc(N)c(C(=O)c3c(F)cccc3F)s2)CC1 [Example V112],88
7,Nc1nc(NC2CCN(S(=O)(=O)CCCNCc3ncccc3O)CC2)sc1C(=O)c1c(F)cccc1F [Example V165],93
8,COCCCNCCCS(=O)(=O)N1CCC(Nc2nc(N)c(C(=O)c3c(F)cccc3F)s2)CC1 [Example V40],80

# Test system: HCT-116 cell line
# Test: Inhibition of cell growth, tetrazolium salt (MTT) assay
# Format: cell-based
# Conditions: HCT116 cells; compound at 250 nM; 0.25 µM
# Summary of the method: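 McCoy's 5A cultures; 4 h pre-incubation; compound dilutions in 0.5% v/v DMSO; 3–5 d, 37° C, 5% CO2; MTT 0.2 mg/mL final, 4 h; formazan dissolved in DMSO, A540; vs 0.5% DMSO vehicle.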
row,SMILES,% Inhibition HCT116 @ 250 nM [%]
1,N#CCNCCS(=O)(=O)N1CCC(Nc2nc(N)c(C(=O)c3c(F)cccc3F)s2)CC1 [Example S160],30

# Same assay, conditions: Homo sapiens, HCT-116, 120 h, first HCT-116 column (c4); MTT, three to five days; read-out: HCT-116 IC50
row,SMILES,IC50 [nM]
1,"Nc1nc(NC2CCN(S(=O)(=O)CCNCc3c(F)cccc3F)CC2)sc1C(=O)c1c(F)cccc1F [Example K50, (4-Amino-2-{1-[2-(2,6-difluoro-benzylamino)-ethanesulfonyl]-piperidin-4-ylamino}-thiazol-5-yl)-(2,6-difluoro-phenyl)-methanone]",200

# Same assay, conditions: Homo sapiens, HCT-116, 120 h, second HCT-116 column (c5); MTT, three to five days; read-out: HCT-116 IC50
row,SMILES,IC50 [nM]
1,"Nc1nc(NC2CCN(S(=O)(=O)CCNCc3c(F)cccc3F)CC2)sc1C(=O)c1c(F)cccc1F [Example K50, (4-Amino-2-{1-[2-(2,6-difluoro-benzylamino)-ethanesulfonyl]-piperidin-4-ylamino}-thiazol-5-yl)-(2,6-difluoro-phenyl)-methanone]",500

# Same assay, conditions: Homo sapiens, HCT-116, HCT116 cells; compound at 250 nM; read-out: % Inhibition HCT116 @ 250 nM
row,SMILES,inhibition at 0.25 µM [%]
1,C=CCNCCS(=O)(=O)N1CCC(Nc2nc(N)c(C(=O)c3c(F)cccc3F)s2)CC1 [Example S120],17
2,CCCCN(CC#N)CCS(=O)(=O)N1CCC(Nc2nc(N)c(C(=O)c3c(F)cccc3F)s2)CC1 [Example S2],18
3,CCC(NCCS(=O)(=O)N1CCC(Nc2nc(N)c(C(=O)c3c(F)cccc3F)s2)CC1)c1ccccc1 (stereo not shown) [Example S141],78
4,CN(CCc1ccncc1)CCS(=O)(=O)N1CCC(Nc2nc(N)c(C(=O)c3c(F)cccc3F)s2)CC1 [Example S50],17
5,Nc1nc(NC2CCN(S(=O)(=O)CCNCc3ccc(F)cc3)CC2)sc1C(=O)c1c(F)cccc1F [Example S102],57
6,CCN1CCCC1CNCCS(=O)(=O)N1CCC(Nc2nc(N)c(C(=O)c3c(F)cccc3F)s2)CC1 (stereo not shown) [Example S70],23
7,Nc1nc(NC2CCN(S(=O)(=O)CCNC3CCc4ccccc43)CC2)sc1C(=O)c1c(F)cccc1F (stereo not shown) [Example S73],16
8,CC(CN(C)C)NCCS(=O)(=O)N1CCC(Nc2nc(N)c(C(=O)c3c(F)cccc3F)s2)CC1 (stereo not shown) [Example S130],20
9,Nc1nc(NC2CCN(S(=O)(=O)CCNC3c4ccccc4CC3O)CC2)sc1C(=O)c1c(F)cccc1F (stereo not shown) [Example S150],33
10,Nc1nc(NC2CCN(S(=O)(=O)CCNCc3ccc(Cl)cc3)CC2)sc1C(=O)c1c(F)cccc1F [Example S103],25
11,CCCCN(CCC#N)CCS(=O)(=O)N1CCC(Nc2nc(N)c(C(=O)c3c(F)cccc3F)s2)CC1 [Example S37],24
12,Nc1nc(NC2CCN(S(=O)(=O)CCNCc3cccc(F)c3)CC2)sc1C(=O)c1c(F)cccc1F [Example S99],43
13,CN(C)C(=O)[C@H]1CCCN1CCS(=O)(=O)N1CCC(Nc2nc(N)c(C(=O)c3c(F)cccc3F)s2)CC1 [Example S66],14
14,Nc1nc(NC2CCN(S(=O)(=O)CCNCc3cccc(F)c3F)CC2)sc1C(=O)c1c(F)cccc1F [Example S158],73
15,Cc1ccccc1CNCCS(=O)(=O)N1CCC(Nc2nc(N)c(C(=O)c3c(F)cccc3F)s2)CC1 [Example S98],49
16,CC(C)c1ccc(CNCCS(=O)(=O)N2CCC(Nc3nc(N)c(C(=O)c4c(F)cccc4F)s3)CC2)cc1 [Example S138],22
17,Nc1nc(NC2CCN(S(=O)(=O)CCNC3CCC3)CC2)sc1C(=O)c1c(F)cccc1F [Example S59],40
18,Nc1nc(NC2CCN(S(=O)(=O)CCNCCO)CC2)sc1C(=O)c1c(F)cccc1F [Example S115],68
19,CC(C)(C)N(CCO)CCS(=O)(=O)N1CCC(Nc2nc(N)c(C(=O)c3c(F)cccc3F)s2)CC1 [Example S3],25
20,Nc1nc(NC2CCN(S(=O)(=O)CCNCc3ccccc3)CC2)sc1C(=O)c1c(F)cccc1F [Example S94],64

row,SMILES,inhibition at 0.25 µM [%]
1,CC(C)OCCNCCS(=O)(=O)N1CCC(Nc2nc(N)c(C(=O)c3c(F)cccc3F)s2)CC1 [Example S166],9
2,Nc1nc(NC2CCN(S(=O)(=O)CCN3CCCCCC3)CC2)sc1C(=O)c1c(F)cccc1F [Example S7],22
3,CC(O)CNCCS(=O)(=O)N1CCC(Nc2nc(N)c(C(=O)c3c(F)cccc3F)s2)CC1 (stereo not shown) [Example S110],16
4,Nc1nc(NC2CCN(S(=O)(=O)CCNCCc3ccccc3F)CC2)sc1C(=O)c1c(F)cccc1F [Example S159],44
5,C=CCN(CC=C)CCS(=O)(=O)N1CCC(Nc2nc(N)c(C(=O)c3c(F)cccc3F)s2)CC1 [Example S32],69
6,Cc1ccc(CCNCCS(=O)(=O)N2CCC(Nc3nc(N)c(C(=O)c4c(F)cccc4F)s3)CC2)cc1 [Example S118],25
7,CC(CO)NCCS(=O)(=O)N1CCC(Nc2nc(N)c(C(=O)c3c(F)cccc3F)s2)CC1 (stereo not shown) [Example S90],7
8,Nc1nc(NC2CCN(S(=O)(=O)CCNCCOCCO)CC2)sc1C(=O)c1c(F)cccc1F [Example S147],23
9,CN(CCS(=O)(=O)N1CCC(Nc2nc(N)c(C(=O)c3c(F)cccc3F)s2)CC1)CC1OCCO1 [Example S41],18
10,CCN(CCS(=O)(=O)N1CCC(Nc2nc(N)c(C(=O)c3c(F)cccc3F)s2)CC1)C1CCCCC1 [Example S10],62
11,CCCC(C)(C)NCCS(=O)(=O)N1CCC(Nc2nc(N)c(C(=O)c3c(F)cccc3F)s2)CC1 [Example S145],96
12,Cc1ccc(CNCCS(=O)(=O)N2CCC(Nc3nc(N)c(C(=O)c4c(F)cccc4F)s3)CC2)c(C)c1 [Example S137],43
13,Nc1nc(NC2CCN(S(=O)(=O)CCNCc3ccccc3Cl)CC2)sc1C(=O)c1c(F)cccc1F [Example S96],48
14,Cc1ccc(CNCCS(=O)(=O)N2CCC(Nc3nc(N)c(C(=O)c4c(F)cccc4F)s3)CC2)o1 [Example S164],28
15,CN(CCS(=O)(=O)N1CCC(Nc2nc(N)c(C(=O)c3c(F)cccc3F)s2)CC1)CC(=O)N(C)C [Example S55],7
16,CCC(COC)NCCS(=O)(=O)N1CCC(Nc2nc(N)c(C(=O)c3c(F)cccc3F)s2)CC1 (stereo not shown) [Example S146],42
17,Nc1nc(NC2CCN(S(=O)(=O)CCN3CCSC3)CC2)sc1C(=O)c1c(F)cccc1F [Example S22],18
18,Nc1nc(NC2CCN(S(=O)(=O)CCNCCNc3ccccc3)CC2)sc1C(=O)c1c(F)cccc1F [Example S112],15
19,Nc1nc(NC2CCN(S(=O)(=O)CCNC3CC3)CC2)sc1C(=O)c1c(F)cccc1F [Example S60],72

# Same assay, conditions: Homo sapiens, HCT-116, HCT-116 cells; MTT; compound at 0.175 uM
row,SMILES,inhibition at 0.175 µM [%]
1,Nc1nc(NC2CCN(S(=O)(=O)CCCNCc3ccccn3)CC2)sc1C(=O)c1c(F)cccc1F [Example V7],0
2,CN1CCCN(CCCS(=O)(=O)N2CCC(Nc3nc(N)c(C(=O)c4c(F)cccc4F)s3)CC2)CC1 [Example V30],8
3,Nc1nc(NC2CCN(S(=O)(=O)CCCNC3CCOCC3)CC2)sc1C(=O)c1c(F)cccc1F [Example V153],0
4,Nc1nc(NC2CCN(S(=O)(=O)CCCNCC3COCCO3)CC2)sc1C(=O)c1c(F)cccc1F (stereo not shown) [Example V163],2
5,CC(=O)NCCNCCCS(=O)(=O)N1CCC(Nc2nc(N)c(C(=O)c3c(F)cccc3F)s2)CC1 [Example V19],13
6,CCc1ccc(C)cc1NCCCS(=O)(=O)N1CCC(Nc2nc(N)c(C(=O)c3c(F)cccc3F)s2)CC1 [Example V112],57
7,Nc1nc(NC2CCN(S(=O)(=O)CCCNCc3ncccc3O)CC2)sc1C(=O)c1c(F)cccc1F [Example V165],6
8,COCCCNCCCS(=O)(=O)N1CCC(Nc2nc(N)c(C(=O)c3c(F)cccc3F)s2)CC1 [Example V40],0
